Assay results as given in patent US11369586B2, “Antifungal peptoids” (MIDDLE TENNESSEE STATE UNIVERSITY, priority 2018, dated 2022).

Tests used:
[1] = tested on: HepG2 hepatocarcinoma cells; experiment: Mammalian cytotoxicity testing (MTT), HepG2; format: cell-based; details: for toxicity dose 50% (TD50), HepG2: sarcosine scan
Description: (§1) NIH/3T3 mouse fibroblasts and HepG2 hepatocarcinoma cells, cells were grown in DMEM containing 10% FBS at 37° C. and 5% CO2 atmosphere. For cytotoxicity testing, cells were seeded into 96-well plates in phenol red free DMEM containing 10% FBS and incubated for 2 hours to allow cell attachment. Cells were then treated with varying concentrations of peptoid or vehicle control. After 72 hours incubation, 3-(4,5-dimethylthiazol-2-yl)-2,5-diphenyltetrazolium bromide (MTT; 20 μL; 5 mg/mL) was added to each well and the plate incubated for 3.5 hours. Media was removed from each well and 100 μL of DMSO was added and the plate incubated at 37° C. for 10 minutes. The absorbance at 570 nm was then read on a spectrophotometer, percent inhibition determined, and TD50 calculated using GraFit. All triplicate assays were repeated twice on different days.

[2] = Corson et al. 2016; cited from earlier work
[3] = tested on: C. neoformans H99S (serotype A lab strain); experiment: Minimum inhibitory concentration (MIC) testing, CLSI broth dilution, PrestoBlue viability; format: cell-based, Cryptococcus neoformans
Description: The minimum inhibitory concentration (MIC) was determined against C. neoformans H99S (serotype A lab strain) as previously described. (Corson, et al. ACS Med. Chem. Lett. 2016, 7(12).) All MIC assays were carried out following CLSI guidelines. (CLSI. Reference method for broth dilution antifungal susceptibility testing of yeasts; approved standard-third edition; CLSI document M27-A3; Clinical and Laboratory Standards Institute: Wayne, Pa.) Briefly, the organism to be tested was streaked from frozen stock for isolation and incubated for 96 hours. A 5 mL solution of 0.85% saline was inoculated with 1-2 colonies of the organism of interest, and the inoculated solution was vortexed for one minute. The optical density at 530 nanometers (nm) was acquired on a spectrophotometer and adjusted through addition of saline or cells to obtain an OD530nm of 0.15 to 0.25. A 1:100 solution of Roswell Park Memorial Institute (RPMI) media containing 3-morpholinopropane sulfonic acid (MOPS; 0.1 M) and cells was made by adding 0.100 mL of saline inoculated with cells to 9.9 mL of RMPI. The solution was vortexed and used to make a 1:20 solution by adding and vortexing 0.5 mL of the 1:100 solution to 9.5 mL of RPMI+0.1 M MOPS. (This was repeated twice to make a total of 20 mL of 1:20 RPMI+ cells.)
Two-fold serial dilutions of peptoid were prepared in water at 100 times the concentration to be tested. In a 96-well plate, 198 μL of 1:20 RPMI+cells was placed in each well followed by 2 μL of 100-times compound or vehicle control in triplicate. The plate was incubated at 35° C. for 72 hours. For viability analysis, 20 μL of PrestoBlue was added to each well, the plate incubated for 8 hours, and the fluorescent intensity of each well measured (Ex. 555 nm; Em. 585 nm). All triplicate assays were repeated twice on different days.

[4] = tested on: NIH/3T3 mouse fibroblasts; experiment: Mammalian cytotoxicity testing (MTT), NIH/3T3; format: cell-based
Description: as §1, with “For” for “NIH/3T3 mouse fibroblasts and HepG2 hepatocarcinoma cells, cells were grown in DMEM containing 10% FBS at 37° C. and 5% CO2 atmosphere. For”

[5] = tested on: human red blood cells (hRBCs); experiment: Hemolytic activity against human red blood cells; format: cell-based; details: human erythrocytes, HC10
Description: The hemolytic activity of peptoids against human red blood cells (hRBCs) was done as previously described. (Murugan et al. Bioorg. Med. Chem. Lett. 2013, 23(16), 4633-4636.) Briefly, hRBCs were washed 3× with PBS (11.8 mM phosphate; 140.4 mM NaCl; pH 7.4) by centrifugation (10 minutes at 1000×g). Cells were resuspended in PBS and 100 μL aliquots placed into individual wells of a 96-well plate. Peptoid solutions (2-fold serial dilution in PBS; 400-3.13 μg/mL final) were added to the wells. A negative control was prepared by adding PBS with no peptoid to the hRBCs and a positive control was prepared by adding 1% Triton X-100 to the hRBCs. The plate was incubated at 37° C. for 1 hour, centrifuged at 1000×g for 10 minutes, and 5 μL of supernatant transferred into 95 μL of PBS in a new 96-well plate. Released hemoglobin was measured by reading the absorbance at 405 nm on a spectrophotometer. All triplicate assays were repeated twice on different days. Percent hemolysis was calculated as follows:
[formula] The Hill Slope (H) and HC50 was determined using GraFit and HC10 was calculated from HC50 using the following equation: HC10=HC50[10%/(100%−10%)]^1/H NMR Analysis

[6] = C. neoformans MIC, relative to AEC5

For `CCCCCCCCCCCCCNCC(=O)N(CCCCN)CC(=O)N(CC(N)=O)Cc1ccco1` [AEC5, reference compound], the “TD50 against HepG2 liver cells” value ([1]; 72 hours incubation, MTT) is given as 56.2 µg/mL, the “toxicity dose 50% (TD50), HepG2” value [1] is given as 56.2 m/mL and the “in vitro proteolytic stability” value [2] is given as “excellent”.

In the case of `CNCC(=O)N(CCCCN)CC(=O)N(CC(N)=O)Cc1ccco1` [AEC5sar1], the “antifungal potency (MIC), above highest concentration tested” value ([3]; sarcosine scan) is reported as greater than 400 m/mL and the “toxicity dose 50% (TD50), HepG2” value [1] is reported as greater than 800 m/mL.

With `CCCCCCCCCCCCCNCC(=O)N(C)CC(=O)N(CC(N)=O)Cc1ccco1` [AEC5sar2] the “fold decrease in antifungal potency compared to AEC5” value [3, 6] was 2 fold, the “fold change of toxicity dose 50% (TD50) compared to AEC5” value ([1]; HepG2, relative to AEC5, printed as increased) was 2 fold and the “toxicity dose 50% (TD50), HepG2” value [1] was 21.1 m/mL.

For `CCCCCCCCCCCCCNCC(=O)N(CCCCN)CC(=O)N(C)CC(N)=O` [AEC5sar3], the “fold decrease in antifungal potency compared to AEC5” value [3, 6] was 8 fold and the “change of mammalian cell toxicity compared to AEC5” value ([1]; HepG2) was “little effect on mammalian toxicity”.

For `CCCCCCCCCCCCCNCC(=O)N(CCCCN)CC(=O)N(CC(N)=O)Cc1cccs1` [γ-2], the “fold improvement in antifungal potency compared to AEC5” value [3, 6] was 2 fold, the MIC ([3]; Cryptococcus neoformans, read-out: MIC against C. neoformans) was less than 3.5 µg/mL and the “selectivity ratio (TD50/MIC)” value ([1]; HepG2 TD50 and C. neoformans MIC) was 25.3. For the same molecule, the “toxicity towards NIH/3T3 mouse fibroblasts compared to AEC5” value [4] was “decreased toxicity”, the “selectivity ratio, NIH/3T3 mouse fibroblasts” value ([4]; NIH/3T3 toxicity and C. neoformans MIC) was 21 and the “level of hemolysis compared to AEC5” value [5] was “slightly higher levels of hemolysis”.
